The text below walks through data of PubChem BioAssay AID256 (DTP/NCI, 2004).

Inconclusive results and toxic doses are left out.

For the assay, the system named is CD2F1 mice, L1210 leukemia ip, survival T/C. Briefly: NCI In Vivo Anticancer Drug Screen. Data for tumor model L1210 Leukemia (intraperitoneal) in CD2F1 (CDF1) mice. The settings on record: higher = longer survival. In a few lines: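 Each value reflects a quotient of treated over vehicle control outcomes in mice with a transplanted tumor.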
Setting [1] is: endpoint: mean survival time, dose: 100.0 mg/kg/injection, schedule: Q01DX001 (ip), vehicle: saline with Tween-80.
Setting [2] is: endpoint: mean survival time, dose: 100.0 mg/kg/injection, schedule: Q01DX009 (ip), vehicle: saline with Tween-80.
Where [3] appears, read: endpoint: mean survival time, dose: 200.0 mg/kg/injection, schedule: Q01DX001 (ip), vehicle: saline with Tween-80.
Where [4] appears, read: endpoint: mean survival time, dose: 200.0 mg/kg/injection, schedule: Q01DX009 (ip), vehicle: saline with Tween-80.
Where [5] appears, read: endpoint: mean survival time, dose: 400.0 mg/kg/injection, schedule: Q01DX001 (ip), vehicle: saline with Tween-80.
Where [6] appears, read: endpoint: mean survival time, dose: 400.0 mg/kg/injection, schedule: Q01DX009 (ip), vehicle: saline with Tween-80.
Setting [7] is: endpoint: mean survival time, dose: 50.0 mg/kg/injection, schedule: Q01DX009 (ip), vehicle: saline with Tween-80.
[8] abbreviates: endpoint: mean survival time, dose: 100.0 mg/kg/injection, schedule: Q04DX003 (ip), vehicle: saline with Tween-80.
The mark [9] stands for this setting: endpoint: mean survival time, dose: 200.0 mg/kg/injection, schedule: Q04DX003 (ip), vehicle: saline with Tween-80.
Setting [10] is: endpoint: mean survival time, dose: 100.0 mg/kg/injection, schedule: Q01DX001 (ip), vehicle: saline.
[11] abbreviates: endpoint: mean survival time, dose: 200.0 mg/kg/injection, schedule: Q01DX001 (ip), vehicle: saline.
Setting [12] is: endpoint: mean survival time, dose: 400.0 mg/kg/injection, schedule: Q01DX001 (ip), vehicle: saline.
Where [13] appears, read: endpoint: mean survival time, dose: 400.0 mg/kg/injection, schedule: Q04DX003 (ip), vehicle: saline with Tween-80.

In the case of `CCN(CC)Cc1cc(Nc2ncnc3oc(C)c(C)c23)ccc1O`, the T/C by setting is: under setting [1], 100 % of control; under setting [2], 102 % of control; under setting [3], 95 % of control; under setting [4], 96 % of control; under setting [5], 95 % of control; under setting [6], 100 % of control.
Turning to `Cc1[nH]c2ccc(-c3ccccc3)cc2c1CC(=O)OC(C)C`, the T/C runs as follows: (endpoint: mean survival time, dose: 100.0 mg/kg/injection, schedule: Q04DX002 (ip), vehicle: saline with Tween-80) 97 % of control; (endpoint: mean survival time, dose: 200.0 mg/kg/injection, schedule: Q04DX002 (ip), vehicle: saline with Tween-80) 117 % of control; (endpoint: mean survival time, dose: 400.0 mg/kg/injection, schedule: Q04DX002 (ip), vehicle: saline with Tween-80) 105 % of control.
As to `CCCC(=O)OCC1OC(n2ccc(O)cc2=O)C(O)C1O` (stereo not given), the T/C runs as follows: (endpoint: median survival time, dose: 44.0 mg/kg/injection, schedule: Q01DX009 (ip), vehicle: saline + Tween-80 + alcohol) 171 % of control; (endpoint: median survival time, dose: 67.0 mg/kg/injection, schedule: Q01DX009 (ip), vehicle: saline + Tween-80 + alcohol) 174 % of control; (endpoint: median survival time, dose: 100.0 mg/kg/injection, schedule: Q01DX009 (ip), vehicle: saline + Tween-80 + alcohol) 168 % of control; (endpoint: median survival time, dose: 150.0 mg/kg/injection, schedule: Q01DX009 (ip), vehicle: saline + Tween-80 + alcohol) 162 % of control.
For the molecule `CC(C)(C)C1=CC(=O)C(Cl)(C(C)(C)C)C(Cl)C1=O` (stereo not given), the T/C is, setting by setting: (endpoint: mean survival time, dose: 25.0 mg/kg/injection, schedule: Q01DX001 (ip), vehicle: saline with Tween-80) 97 % of control; (endpoint: mean survival time, dose: 50.0 mg/kg/injection, schedule: Q01DX001 (ip), vehicle: saline with Tween-80) 93 % of control.
Regarding `CCCCCNc1ncnc2c(C)[nH]nc12`, the T/C was 101 % of control (endpoint: median survival time, dose: 25.0 mg/kg/injection, schedule: Q01DX009 (ip), vehicle: Klucel (hydroxypropylcellulose) (HPC)); 108 % of control (endpoint: median survival time, dose: 50.0 mg/kg/injection, schedule: Q01DX009 (ip), vehicle: Klucel (hydroxypropylcellulose) (HPC)); 100 % of control (endpoint: median survival time, dose: 100.0 mg/kg/injection, schedule: Q01DX009 (ip), vehicle: Klucel (hydroxypropylcellulose) (HPC)); 96 % of control (endpoint: median survival time, dose: 200.0 mg/kg/injection, schedule: Q01DX009 (ip), vehicle: Klucel (hydroxypropylcellulose) (HPC)).
Turning to `CC(=O)Nc1ccc2cc3ccc(NC(C)=O)cc3nc2c1`, the T/C is 98 % of control (endpoint: mean survival time, dose: 100.0 mg/kg/injection, schedule: Q04DX002 (ip), vehicle: saline); 98 % of control (endpoint: mean survival time, dose: 200.0 mg/kg/injection, schedule: Q04DX002 (ip), vehicle: saline); 98 % of control (endpoint: mean survival time, dose: 400.0 mg/kg/injection, schedule: Q04DX002 (ip), vehicle: saline).
`OC(CBr)C(O)CBr` (stereo not given): the T/C runs as follows: under setting [7], 108 % of control; (endpoint: mean survival time, dose: 50.0 mg/kg/injection, schedule: Q01DX009 (ip), vehicle: saline) 108 % of control; under setting [1], 102 % of control; under setting [2], 106 % of control; (endpoint: mean survival time, dose: 100.0 mg/kg/injection, schedule: Q01DX009 (ip), vehicle: saline) 108 % of control; under setting [8], 102 % of control. Also, the T/C reads like this: under setting [3], 109 % of control; under setting [9], 86 % of control.
`CC(=O)Nc1nc(C)c(CCCOc2ccc([N+](=O)[O-])cc2)c(=O)[nH]1`: the T/C reads like this: (endpoint: mean survival time, dose: 50.0 mg/kg/injection, schedule: Q01DX009 (ip), vehicle: Klucel (hydroxypropylcellulose) (HPC)) 97 % of control; (endpoint: mean survival time, dose: 100.0 mg/kg/injection, schedule: Q01DX009 (ip), vehicle: Klucel (hydroxypropylcellulose) (HPC)) 90 % of control; (endpoint: mean survival time, dose: 200.0 mg/kg/injection, schedule: Q01DX009 (ip), vehicle: Klucel (hydroxypropylcellulose) (HPC)) 90 % of control.
`Nc1cc(=O)c2cn[nH]c2[nH]1`: the T/C (endpoint: mean survival time, dose: 12.5 mg/kg/injection, schedule: Q01DX005 (ip), vehicle: other) was 98 % of control; the T/C (endpoint: mean survival time, dose: 25.0 mg/kg/injection, schedule: Q01DX005 (ip), vehicle: other) is 102 % of control; the T/C (endpoint: mean survival time, dose: 50.0 mg/kg/injection, schedule: Q01DX005 (ip), vehicle: other) was 102 % of control; the T/C (endpoint: mean survival time, dose: 100.0 mg/kg/injection, schedule: Q01DX005 (ip), vehicle: other) is 95 % of control.
As to `COC1OC(C(O)CO)C(O)C(O)C1O` (stereo not given), the T/C is, setting by setting: under setting [10], 105 % of control; under setting [8], 104 % of control; under setting [11], 96 % of control; under setting [9], 103 % of control; under setting [12], 102 % of control; under setting [13], 98 % of control.
Regarding `O=S(=O)(Nc1ccc(O)c(Cl)c1)c1ccccc1`, the T/C runs as follows: under setting [8], 98 % of control; under setting [9], 97 % of control; under setting [13], 110 % of control.
Turning to `S=c1[nH]c2cc(Cl)c(Cl)cc2[nH]1`, the T/C is 100 % of control under setting [10], 100 % of control under setting [11] and 102 % of control under setting [12].
On to `CC(C)(C[NH-])C[NH-].O=C(O)CC(=O)O.[Pt+2]`, for which the T/C by setting is: (endpoint: median survival time, dose: 0.78 mg/kg/injection, schedule: Q04DX003 (ip), vehicle: water) 116 % of control; (endpoint: median survival time, dose: 1.56 mg/kg/injection, schedule: Q04DX003 (ip), vehicle: water) 113 % of control; (endpoint: median survival time, dose: 3.12 mg/kg/injection, schedule: Q04DX003 (ip), vehicle: water) 112 % of control; (endpoint: median survival time, dose: 3.13 mg/kg/injection, schedule: Q04DX003 (ip), vehicle: distilled water + Tween-80) 123 % of control; (endpoint: median survival time, dose: 12.5 mg/kg/injection, schedule: Q04DX003 (ip), vehicle: distilled water + Tween-80) 116 % of control; (endpoint: median survival time, dose: 12.5 mg/kg/injection, schedule: Q04DX003 (ip), vehicle: water) 112 % of control. The T/C (endpoint: median survival time, dose: 25.0 mg/kg/injection, schedule: Q04DX003 (ip), vehicle: distilled water + Tween-80) is 98 % of control.
As to `CCC1(C)CCC2(C)C(CCC3C2CCCC3(C)CO)C1` (stereo not given), the T/C reads like this: under setting [1], 94 % of control; under setting [3], 88 % of control; under setting [5], 96 % of control.
As to `C#CC(=O)c1ccccc1`, the T/C (endpoint: mean survival time, dose: 9.4 mg/kg/injection, schedule: Q04DX003 (ip), vehicle: saline) was 93 % of control.
In the case of `COc1cc(/C=C(\C#N)c2ccc(Cl)cc2)ccc1OCc1ccccc1`, the T/C reads like this: under setting [7], 95 % of control; under setting [2], 90 % of control; under setting [8], 89 % of control; under setting [4], 90 % of control; under setting [9], 89 % of control; under setting [13], 89 % of control.
With `CCOC(=O)C(C)C1(O)CCCCC1` (stereo not given), the T/C runs as follows: under setting [8], 101 % of control; under setting [9], 101 % of control; under setting [13], 92 % of control.
`CC1(C)CC(C)(c2ccc(O)cc2)c2ccccc2O1` (stereo not given): the T/C was 90 % of control under setting [2]; 92 % of control under setting [8]; 92 % of control under setting [4]; 92 % of control under setting [9]; 91 % of control under setting [6]; 90 % of control under setting [13].
For the molecule `CCCCCCC(Sc1n[nH]c(=O)[nH]c1=O)C(=O)OCC` (stereo not given), the T/C (endpoint: mean survival time, dose: 12.5 mg/kg/injection, schedule: Q01DX005 (ip), vehicle: distilled water + Tween-80) is 97 % of control; the T/C (endpoint: mean survival time, dose: 25.0 mg/kg/injection, schedule: Q01DX005 (ip), vehicle: distilled water + Tween-80) was 102 % of control; the T/C (endpoint: mean survival time, dose: 50.0 mg/kg/injection, schedule: Q01DX005 (ip), vehicle: distilled water + Tween-80) was 102 % of control; the T/C (endpoint: mean survival time, dose: 100.0 mg/kg/injection, schedule: Q01DX005 (ip), vehicle: distilled water + Tween-80) is 96 % of control; the T/C (endpoint: mean survival time, dose: 200.0 mg/kg/injection, schedule: Q01DX005 (ip), vehicle: distilled water + Tween-80) was 97 % of control.
For the molecule `[Cl][Pt+2][Cl].[NH-]CCc1ccccc1.[NH-]CCc1ccccc1`, the T/C was 103 % of control (endpoint: mean survival time, dose: 12.5 mg/kg/injection, schedule: Q04DX003 (ip), vehicle: saline with Tween-80); 106 % of control (endpoint: mean survival time, dose: 25.0 mg/kg/injection, schedule: Q04DX003 (ip), vehicle: saline with Tween-80); 106 % of control (endpoint: mean survival time, dose: 50.0 mg/kg/injection, schedule: Q04DX003 (ip), vehicle: saline with Tween-80); 103 % of control under setting [8]; 117 % of control under setting [9].
